The record followed here is ChEMBL document CHEMBL5241112, “Insights into the recent progress in the medicinal chemistry of pyranopyrimidine analogs” (RSC Med Chem, 2022).

Converted amounts (≈) assume the structure as drawn.

Usually IC50 stands for the concentration that gives 50% inhibition. By MIC is commonly meant the smallest concentration in the dilution series that meets the test's criterion for growth inhibition.

One series deals with U-937. The series is described as follows: Induction of apoptosis in human U-937 cells assessed as total apoptotic cells at 50 uM incubated for 50 hrs by FACS analysis. The format is functional. A general note: In flow cytometry, cells or beads pass a laser one at a time.
For another series, the system named is HCT-116. The series is described as follows: Anticancer activity against human HCT-116 cells assessed as reduction in cell viability incubated for 96 hrs by MTT assay. The series is classed as functional, cell-based. The note with it: HCT-116, 96 h. For orientation: Tetrazolium assays rely on reduction of a dye to a coloured formazan, in cell work by metabolically active cells.

Series [1] deals with MCF7. Briefly: cells. The series is classed as functional, cell-based. The settings on record: Homo sapiens, MCF7, 96 h.
Series [2] addresses Poly [ADP-ribose] polymerase 1 (Homo sapiens, UniProt P09874). Briefly: Inhibition of PARP1 (unknown origin) incubated for 1 hrs by colorimetric analysis.
Another series deals with SK-OV-3. Briefly: Anticancer activity against human SK-OV-3 cells assessed as reduction in cell viability incubated for 24 hrs by MTT assay. The format is functional, cell-based. The note with it: SK-OV-3, 24 h.
The next series relates to A549. The series is described as follows: Anticancer activity against human A549 cells assessed as reduction in cell viability incubated for 24 hrs by MTT assay. The series is classed as functional, cell-based. The note with it: A549, 24 h.
For series [3], the system named is MCF7. The series is described as follows: Anticancer activity against human MCF7 cells assessed as reduction in cell viability incubated for 24 hrs by MTT assay. The series is classed as functional, cell-based. The note with it: MCF7, 24 h.
For series [4], the target named is NAD-dependent protein deacetylase sirtuin-1 (Homo sapiens, UniProt Q96EB6). The series is described as follows: Inhibition of recombinant human SIRT1 expressed in Escherichia coli using Fluor de Lys-SIRT1/2 substrate in presence of NAD+ by fluorescence microplate reader analysis.
NAD-dependent protein deacetylase sirtuin-1, sequence (Q96EB6 whole entry): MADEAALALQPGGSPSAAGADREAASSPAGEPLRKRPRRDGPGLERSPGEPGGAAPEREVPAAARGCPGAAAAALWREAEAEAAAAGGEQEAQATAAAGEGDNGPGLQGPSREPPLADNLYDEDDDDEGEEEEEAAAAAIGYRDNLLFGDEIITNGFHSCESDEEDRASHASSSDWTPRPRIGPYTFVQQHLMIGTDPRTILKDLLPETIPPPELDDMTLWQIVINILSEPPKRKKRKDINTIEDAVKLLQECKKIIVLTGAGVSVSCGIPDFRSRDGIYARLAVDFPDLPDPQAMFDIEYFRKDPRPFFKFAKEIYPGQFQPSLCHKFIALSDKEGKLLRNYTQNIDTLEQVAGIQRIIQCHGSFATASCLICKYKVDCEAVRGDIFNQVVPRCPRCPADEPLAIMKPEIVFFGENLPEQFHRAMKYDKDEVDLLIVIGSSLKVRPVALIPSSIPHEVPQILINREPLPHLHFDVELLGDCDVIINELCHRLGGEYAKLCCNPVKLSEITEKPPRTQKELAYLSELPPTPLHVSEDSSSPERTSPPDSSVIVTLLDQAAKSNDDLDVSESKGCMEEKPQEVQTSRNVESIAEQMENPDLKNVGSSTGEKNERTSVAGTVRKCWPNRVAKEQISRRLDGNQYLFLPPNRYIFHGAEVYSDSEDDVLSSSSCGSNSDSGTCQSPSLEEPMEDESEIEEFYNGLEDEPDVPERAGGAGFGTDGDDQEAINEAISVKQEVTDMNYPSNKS
The next series deals with HepG2. The series is described as follows: Anticancer activity against human HepG2 cells assessed as reduction in cell viability incubated for 24 hrs by MTT assay. The note with it: HepG2, 24 h. The format is functional, cell-based.
Series [5] relates to Enterobacter cloacae. The series is described as follows: Antibacterial activity against Enterobacter cloacae assessed as inhibition of bacterial growth at MIC by microdilution method. The series is classed as functional. In general terms: Broth dilution looks for growth in wells or tubes with falling amounts of substance.
Series [6] concerns Enterococcus faecalis. Briefly: Antibacterial activity against […] assessed as inhibition of bacterial growth by microdilution method. The format is functional.
For another series, the system named is Escherichia coli. The series is described as follows: Antibacterial activity against Escherichia coli assessed as inhibition of bacterial growth by microdilution method. The series is classed as functional.
For series [7], the system named is Enterobacter cloacae. Briefly: Antibacterial activity against Enterobacter cloacae assessed as inhibition of bacterial growth by microdilution method. The format is functional.
A further series has as its system Caco-2. The series is described as follows: Anticancer activity against human Caco-2 cells assessed as reduction in cell viability by MTT assay. The series is classed as functional, cell-based.
The subject of series [8] is Enterococcus faecalis. The series is described as follows: Antibacterial activity against […] assessed as minimum bactericidal concentration by microdilution method. The format is functional.
The subject of series [9] is Enterobacter cloacae. The series is described as follows: Antibacterial activity against Enterobacter cloacae assessed as minimum bactericidal concentration by microdilution method. The format is functional.
For series [10], the system named is Enterococcus faecalis. Briefly: Antibacterial activity against […] assessed as inhibition of bacterial growth at MIC by microdilution method. The series is classed as functional.
Series [11] concerns Candida albicans. Briefly: […] activity against Candida albicans assessed as […] by microdilution method. The series is classed as functional.
The test system of series [12] is Bacillus pumilus. The series is described as follows: Antibacterial activity against Bacillus pumilus assessed as minimum bactericidal concentration by microdilution method. The series is classed as functional.
Series [13] deals with Bacillus pumilus. Briefly: Antibacterial activity against Bacillus pumilus assessed as inhibition of bacterial growth at MIC by microdilution method. The format is functional.
Series [14] has as its system Aspergillus niger. The series is described as follows: […] activity against Aspergillus niger assessed as […] by microdilution method. The format is functional.
Series [15] has as its system Aspergillus niger. Briefly: Antifungal activity against Aspergillus niger assessed as inhibition of fungal growth at MIC by microdilution method. The series is classed as functional.
In series [16] the test system is Aspergillus niger. Briefly: Antifungal activity against Aspergillus niger assessed as inhibition of fungal growth by microdilution method. The format is functional.
Series [17] deals with Bacillus pumilus. Briefly: Antibacterial activity against Bacillus pumilus assessed as inhibition of bacterial growth by microdilution method. The series is classed as functional.
Series [18] deals with Candida albicans. The series is described as follows: Antifungal activity against Candida albicans assessed as inhibition of fungal growth at MIC by microdilution method. The format is functional.
A short description of series [19]: Cytotoxicity against African green monkey Vero cells assessed as reduction in cell viability by MTT assay. The format is toxicity, cell-based. The note with it: African green monkey (Chlorocebus sabaeus).
The subject of series [20] is Candida albicans. The series is described as follows: Antifungal activity against Candida albicans assessed as inhibition of fungal growth by microdilution method. The series is classed as functional.

Poly [ADP-ribose] polymerase 1, sequence (P09874 whole entry): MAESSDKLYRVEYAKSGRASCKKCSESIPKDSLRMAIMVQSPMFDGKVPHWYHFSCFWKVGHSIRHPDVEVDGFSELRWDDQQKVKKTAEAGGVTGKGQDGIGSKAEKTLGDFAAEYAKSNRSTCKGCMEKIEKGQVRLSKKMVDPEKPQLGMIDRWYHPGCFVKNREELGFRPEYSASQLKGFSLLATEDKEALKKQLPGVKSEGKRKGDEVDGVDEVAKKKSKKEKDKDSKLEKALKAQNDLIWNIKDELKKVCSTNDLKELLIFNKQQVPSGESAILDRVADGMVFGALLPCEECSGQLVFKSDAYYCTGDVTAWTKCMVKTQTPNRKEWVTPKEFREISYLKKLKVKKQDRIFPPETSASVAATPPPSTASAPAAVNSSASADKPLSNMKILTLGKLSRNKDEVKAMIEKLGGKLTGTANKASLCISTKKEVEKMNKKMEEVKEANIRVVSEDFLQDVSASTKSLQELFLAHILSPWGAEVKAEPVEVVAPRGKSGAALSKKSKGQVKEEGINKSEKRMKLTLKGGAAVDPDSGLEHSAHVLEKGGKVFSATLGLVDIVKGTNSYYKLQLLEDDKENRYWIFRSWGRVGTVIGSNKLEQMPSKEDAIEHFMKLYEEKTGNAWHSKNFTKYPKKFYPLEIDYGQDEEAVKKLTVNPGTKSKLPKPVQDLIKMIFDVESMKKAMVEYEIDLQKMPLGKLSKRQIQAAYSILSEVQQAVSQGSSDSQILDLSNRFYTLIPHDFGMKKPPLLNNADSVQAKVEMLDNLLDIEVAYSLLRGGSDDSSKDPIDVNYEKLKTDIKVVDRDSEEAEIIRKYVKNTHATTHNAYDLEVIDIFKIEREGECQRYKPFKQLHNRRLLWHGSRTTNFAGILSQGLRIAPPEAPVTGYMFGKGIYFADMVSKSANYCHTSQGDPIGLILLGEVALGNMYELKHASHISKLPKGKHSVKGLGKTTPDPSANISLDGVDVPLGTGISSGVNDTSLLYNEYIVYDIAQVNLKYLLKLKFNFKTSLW

As for `O=c1nc2oc3ccc4ccccc4c3cc-2c(=O)n1-c1ccccc1`, the Activity in the series on U-937 worked out at 28.4%.
In the case of `Nc1cc(-c2ccc([N+](=O)[O-])cc2)nc2c1C(c1cccs1)c1c([nH]c(=O)[nH]c1=O)O2` (stereo not drawn), the IC50 in the series with HCT-116 was 2.76 µM; in the series on MCF7 [1], 0.66 µM; in series [2], 0.0158 µM.
As for `CCOC(=O)C1=C(C)Oc2nc(C)n(Cc3cn(-c4ccc([N+](=O)[O-])cc4)nn3)c(=O)c2C1c1ccccc1` (stereo not drawn), the IC50 in the series with SK-OV-3 was 96.5 µM; with A549, 0.69 µM; in the series with MCF7 [3], 71.4 µM.
In the case of `O=C1N=C2Oc3ccccc3CC2C(=O)N1c1ccccc1` (stereo not drawn), the IC50 in series [4] was determined as 4.2 µM.
For `CCCCCCCCn1cc(Cn2c(C)nc3c(c2=O)C(c2ccccc2)C(C(=O)OCC)=C(C)O3)nn1` (stereo not drawn), the IC50 in the series with A549 was found to be 3.62 µM; in the series on HepG2, 69.9 µM.
For the compound `COc1ccc(N2C(=O)C3C(c4ccccc4)C(C#N)=C(N)OC3N(c3ccc(OC)cc3)C2=S)cc1` (stereo not drawn), the “inhibition (INH)” value worked out at 50.5% in the series on Enterobacter cloacae [5]; 78.6% in the series on Enterococcus faecalis [10]; 51.3% in the series on Bacillus pumilus [13]; 88.3% with Aspergillus niger [15]; 85.5% with Candida albicans [18]. The MIC in the series with Enterococcus faecalis [6] amounted to 7.81 µg/mL (≈ 15.2 µM); in the series on Escherichia coli it was 3.91 µg/mL (≈ 7.63 µM); with Enterobacter cloacae [7] it was 31.2 µg/mL (≈ 60.9 µM); in the series on Aspergillus niger [16], 62.5 µg/mL; in the series with Bacillus pumilus [17], 15.6 µg/mL (≈ 30.4 µM); in the series with Candida albicans [20], 31.2 µg/mL. Moreover, the IC50 with Caco-2 turned out to be 65.9 µg/mL (≈ 129 µM); in [19], 138 µg/mL (≈ 269 µM). Further, the MBC with Enterococcus faecalis [8] amounted to 31.3 µg/mL (≈ 61.1 µM); with Enterobacter cloacae [9], 15.6 µg/mL (≈ 30.4 µM); in the series on Candida albicans [11] it was 125 µg/mL (≈ 244 µM); with Bacillus pumilus [12], 62.5 µg/mL (≈ 122 µM); with Aspergillus niger [14], 125 µg/mL (≈ 244 µM).
